This series deals with post-menopausal women with MDD. Kind of series: Post hoc analysis of the Example 1 study: post-menopausal women with MDD. It counts as in vivo, human. The text has this:
Hormonal changes during early menopause can often affect the metabolism of antidepressants (ADTs). Postmenopausal/older women may not respond well to ADTs. This example presents a post hoc analysis of the study described in Example 1 in post-menopausal women with MDD.
The study described in Example 1 enrolled patients with MDD, aged 18-75 years, with HAMD-17≥20 and a MADRS total score ≥28 to 1 of 2 cohorts: 30-mg Cohort and 50-mg Cohort. HAMD-17 responders (≥50% reduction from baseline) at Day 15 continued in study and were assessed for repeat-treatment eligibility. Post-menopausal women aged ≥45 were identified based on follicle stimulating hormone >40 at baseline (central lab data) and if medical history coded terms contained ‘menopause’.

Where [1] appears, read: Day 15, post-menopausal patients.

SMILES strings stand for the structures.

For the compound `C[C@@]1(O)CC[C@H]2[C@H](CC[C@@H]3[C@@H]2CC[C@]2(C)[C@@H](C(=O)Cn4cc(C#N)cn4)CC[C@@H]32)C1` [Compound (1), 1-(2-((3R,5R,8R,9R,10S,13S,14S,17S)-3-hydroxy-3,13-dimethylhexadecahydro-1H-cyclopenta[a]phenanthren-17-yl)-2-oxoethyl)-1H-pyrazole-4-carbonitrile], under “106/152 post-menopausal patients who responded to and completed treatment cycle 1”, the “Patients not requiring additional courses during their time in the study” value was 42.5%. Further, under setting [1], the HAMD-17 remission rate stood at 39.6%, the HAMD-17 response rate is listed as 75.7% and the “Mean (SD) CFB in HAMD-17” value was −16.0 (7.00). For the setting “post-menopausal patients”, the TEAE diarrhea came to 7.9%, the TEAE dizziness is 11.8%, the TEAE dry mouth was 7.2% and the TEAE headache worked out at 13.2%. Besides, for the setting “post-menopausal patients”, the TEAE insomnia is 6.6%, the TEAE sedation is reported as 6.6%, the TEAE somnolence amounted to 12.5% and the “TEAE upper respiratory infection” value amounted to 7.9%. Besides, the “TEAEs leading to discontinuation of study drug” value (post-menopausal patients (8/152)) is listed as 5.3%. Further, the “TEAEs leading to withdrawal from the study” value (post-menopausal patients (9/152)) is 5.9%. In addition, the “TEAEs leading to dose reduction” value (post-menopausal patients (16/152)) is recorded as 10.5%. In addition, under “post-menopausal patients (90/102)”, the “Share of patients with TEAEs that were mild or moderate” value amounted to 88.2%. Further, where the note is “post-menopausal patients (102/152)”, the “Patients with at least 1 TEAE over the study duration” value stood at 67.1%. For the same compound, the “Mean (range) number of total treatment courses” value (post-menopausal patients, cycle 1 responders) is listed as 2.2 (1-5). In addition, the Tolerability result (post-menopausal women) was “generally well-tolerated”.

The values above are taken from patent US20240245711A1, “A 19-NOR C3,3-DISUBSTITUTED C21-N-PYRAZOLYL STEROID FOR THE TREATMENT OF MAJOR DEPRESSIVE DISORDER” (Sage Therapeutics, Inc., priority 2021, published 2024).
